Key:
[1] = tested on: Klebsiella pneumoniae expressing VIM-1 (IHMA599644); format: cell-based; conditions: with imipenem 1 μg/ml; 95% inhibition of bacterial growth
In short: (§1)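 Growth read by absorbance after 22–24 h at 35 °C in CAMHB, with test compound alone or combined with 1 μg/ml imipenem. Inocula came from overnight 35 °C blood-agar colonies, set to a defined OD600 and diluted 1:100. Value is the inhibitor concentration giving synergy.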

[2] = tested on: Serratia marcescens expressing IMP-1 (CL5741); format: cell-based; conditions: with imipenem 1 μg/ml; 95% inhibition of bacterial growth
In short: as §1

[3] = tested on: Pseudomonas aeruginosa PAO1 MB9798 (efflux+, IMP-1); conditions: ratio MITC95 PA 9798/MITC95 PA 9799; imipenem at 2 μg/mL
In short: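 Isogenic PAO1 pair (efflux+ MB9798, efflux− MB9799, both IMP-1) tested by microbroth MIC with fixed imipenem and/or ceftazidime, usually at CLSI breakpoint, plus fixed class A/C inhibitor against AmpC. MBL inhibitor titrated; concentration restoring susceptibility recorded and fold difference between strains taken as efflux extent.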

Compound | Klebsiella pneumoniae (VIM-1) MITC95 [1] [µM] | Serratia marcescens (IMP-1) MITC95 [2] [µM] | Efflux ratio [3]
NC[C@H](N)CNS(=O)(=O)c1ccc(-c2cnc3cc[nH]c3c2)c(-c2nn[nH]n2)c1S(N)(=O)=O [Example 373, (S)-N1-(2,3-diaminopropyl)-4-(1H-pyrrolo[3,2-b]pyridin-6-yl)-3-(2H-tetrazol-5-yl)benzene-1,2-disulfonamide] | 3.125 | 1.563 | 1.00
NCCNS(=O)(=O)c1ccc(-c2cccc(-c3c[nH]c(N)n3)c2)c(-c2nn[nH]n2)c1S(N)(=O)=O [Example 353, 3′-(2-amino-1H-imidazol-4-yl)-N4-(2-aminoethyl)-2-(2H-tetrazol-5-yl)-[1,1′-biphenyl]-3,4-disulfonamide] | 1.563 | 0.7813 | 2.00
NCCNS(=O)(=O)c1ccc(-c2cccc3sc(CN)nc23)c(-c2nn[nH]n2)c1S(N)(=O)=O [Example 345, N^1-(2-aminoethyl)-4-(2-(aminomethyl)benzo[d]thiazol-4-yl)-3-(2H-tetrazol-5-yl)benzene-1,2-disulfonamide] | 0.7813 | 0.7813 | 1.00
Nc1nc2c(-c3ccc(S(=O)(=O)N[C@@H]4CNC[C@@H]4N)c(S(N)(=O)=O)c3-c3nn[nH]n3)cccc2[nH]1 [Example 240, 4-(2-amino-1H-benzo[d]imidazol-4-yl)-N^1-((3R,4S)-4-aminopyrrolidin-3-yl)-3-(2H-tetrazol-5-yl)benzene-1,2-disulfonamide] | 1.563 | 0.7813 | 1.00
NCc1csc(Nc2cccc(-c3ccc(S(=O)(=O)N[C@@H]4CCNC4)c(S(N)(=O)=O)c3-c3nn[nH]n3)c2)n1 [Example 290, (R)-3′-((4-(aminomethyl)thiazol-2-yl)amino)-N4-(pyrrolidin-3-yl)-2-(2H-tetrazol-5-yl)-[1,1′-biphenyl]-3,4-disulfonamide] | 0.7813 | 0.7813 | 2.00
NC[C@@H](N)CNS(=O)(=O)c1ccc(-c2cccc3[nH]c(N)nc23)c(-c2nn[nH]n2)c1S(N)(=O)=O [Example 375, (R)-4-(2-amino-1H-benzo[d]imidazol-4-yl)-N1-(2,3-diaminopropyl)-3-(2H-tetrazol-5-yl)benzene-1,2-disulfonamide] | 1.563 | 1.563 | 1.00
Nc1nc2c(-c3ccc(S(=O)(=O)NC[C@H]4CCCN4)c(S(N)(=O)=O)c3-c3nn[nH]n3)cccc2[nH]1 [Example 261, (R)-4-(2-amino-1H-benzo[d]imidazol-4-yl)-N1-(pyrrolidin-2-ylmethyl)-3-(2H-tetrazol-5-yl) benzene-1,2-disulfonamide] | 0.7813 | 0.7813 | 1.00
C[C@H](CN)NS(=O)(=O)c1ccc(-c2ccnc(N)c2)c(-c2nn[nH]n2)c1S(N)(=O)=O [Example 317, (R)—N1-(1-aminopropan-2-yl)-4-(2-aminopyridin-4-yl)-3-(2H-tetrazol-5-yl) benzene-1,2-disulfonamide] | 3.125 | 1.563 | 0.50
C[C@@H](N)CNS(=O)(=O)c1ccc(-c2ccnc(N)c2)c(-c2nn[nH]n2)c1S(N)(=O)=O [Example 422, (R)-N^1-(2-aminopropyl)-4-(2-aminopyridin-4-yl)-3-(2H-tetrazol-5-yl)benzene-1,2-disulfonamide] | 1.563 | 0.7813 | 
C[C@H](N)c1nc2c(-c3ccc(S(=O)(=O)N[C@@H]4CCNC4)c(S(N)(=O)=O)c3-c3nn[nH]n3)cccc2[nH]1 [Example 272, 4-(2-((S)-1-aminoethyl)-1H-benzo[d]imidazol-4-yl)-N1-((R)-pyrrolidin-3-yl)-3-(2H-tetrazol-5-yl)benzene-1,2-disulfonamide] | 1.563 | 1.563 | 2.00
C[C@H](CN)NS(=O)(=O)c1ccc(-c2cccc3c2nc(N)n3C)c(-c2nn[nH]n2)c1S(N)(=O)=O [Example 395, (R)-4-(2-amino-1-methyl-1H-benzo[d]imidazol-4-yl)-N^1-(1-aminopropan-2-yl)-3-(2H-tetrazol-5-yl)benzene-1,2-disulfonamide] | 1.563 | 1.563 | 
NCc1nc2c(-c3ccc(S(=O)(=O)N[C@@H]4CCNC4)c(S(N)(=O)=O)c3-c3nn[nH]n3)cccc2s1 [Example 276, (R)-4-(2-(aminomethyl)benzo[d]thiazol-4-yl)-N1-(pyrrolidin-3-yl)-3-(2H-tetrazol-5-yl)benzene-1,2-disulfonamide] | 0.7813 | 0.7813 | 1.00
N[C@@H]1CNC[C@@H]1NS(=O)(=O)c1ccc(-c2cnc3cc[nH]c3c2)c(-c2nn[nH]n2)c1S(N)(=O)=O [Example 326, N1-((3S,4R)-4-aminopyrrolidin-3-yl)-4-(1H-pyrrolo[3,2-b]pyridin-6-yl)-3-(2H-tetrazol-5-yl)benzene-1,2-disulfonamide] | 1.563 | 1.563 | 1.00
Nc1nc2c(-c3ccc(S(=O)(=O)NC[C@@H]4CCCN4)c(S(N)(=O)=O)c3-c3nn[nH]n3)cccc2[nH]1 [Example 262, (S)-4-(2-amino-1H-benzo[d]imidazol-4-yl)-N1-(pyrrolidin-2-ylmethyl)-3-(2H-tetrazol-5-yl)benzene-1,2-disulfonamide] | 0.7813 | 0.7813 | 1.00
NCCNC(=O)c1cccc(-c2ccc(S(=O)(=O)NCCN)c(S(N)(=O)=O)c2-c2nn[nH]n2)c1 [Example 334, N-(2-aminoethyl)-4′-(N-(2-aminoethyl)sulfamoyl)-3′-sulfamoyl-2′-(2H-tetrazol-5-yl)-[1,1′-biphenyl]-3-carboxamide] | 0.7813 | 0.7813 | 2.00
NCCNc1ncccc1-c1ccc(S(=O)(=O)N[C@@H]2CCNC2)c(S(N)(=O)=O)c1-c1nn[nH]n1 [Example 459, (R)-4-(2-((2-Aminoethyl)amino)pyridin-3-yl)-N1-(pyrrolidin-3-yl)-3-(2H-tetrazol-5-yl)benzene-1,2-disulfonamide] | 1.563 | 1.563 | 
C[C@H](CN)NS(=O)(=O)c1ccc(-c2cccnc2NCCN)c(-c2nn[nH]n2)c1S(N)(=O)=O [Example 460, (R)-4-(2-((2-aminoethyl)amino)pyridin-3-yl)-N1-(1-aminopropan-2-yl)-3-(2H-tetrazol-5-yl)benzene-1,2-disulfonamide] | 1.563 | 1.563 | 
NC[C@@H](CO)NS(=O)(=O)c1ccc(-c2ccnc(N)c2)c(-c2nn[nH]n2)c1S(N)(=O)=O [Example 380, (S)—N1-(1-amino-3-hydroxypropan-2-yl)-4-(2-aminopyridin-4-yl)-3-(2H-tetrazol-5-yl)benzene-1,2-disulfonamide] | 1.563 | 0.7813 | 1.00

Reference: patent publication US10544130B2, “Metallo-beta-lactamase inhibitors” (priority 2015, dated 2020)
